The results in this text go back to the supplement of paper PMC10307832.

What all share (test): relative viability (nuclei count vs DMSO), 5 days (fraction); higher = more cells survive
Compound in the experiment “Zebularine + Alpelisib”: O=c1ncccn1[C@@H]1O[C@H](CO)[C@@H](O)[C@H]1O [Zebularine] + Cc1nc(NC(=O)N2CCC[C@H]2C(N)=O)sc1-c1ccnc(C(C)(C)C(F)(F)F)c1 [Alpelisib] (partner 2 µM)
The gist of the method: (§1)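 Medians of duplicate plates are given as relative viability. That measure is the nuclei count in treated wells divided by the count in vehicle wells. Counts were taken on 4× images of lung cancer cell lines in 1536-well plates, 5 days after pin-tool dosing the day after seeding with one drug alone or a fixed anchor-drug dose plus five library-drug doses (not always all listed) in √10 steps.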

Compound in the experiment “Zebularine + Lapatinib”: O=c1ncccn1[C@@H]1O[C@H](CO)[C@@H](O)[C@H]1O [Zebularine] + CS(=O)(=O)CCNCc1ccc(-c2ccc3ncnc(Nc4ccc(OCc5cccc(F)c5)c(Cl)c4)c3c2)o1 [Lapatinib] (partner 2 µM)
In a few lines: as §1

Compound in the experiment “BI-D1870 + Decitabine”: CC(C)CCN1c2nc(Nc3cc(F)c(O)c(F)c3)ncc2N(C)C(=O)C1C [BI-D1870] + Nc1ncn([C@H]2C[C@H](O)[C@@H](CO)O2)c(=O)n1 [Decitabine] (partner 2 µM)
The gist of the method: as §1

Compound in the experiment “BI-D1870 + Vorinostat”: CC(C)CCN1c2nc(Nc3cc(F)c(O)c(F)c3)ncc2N(C)C(=O)C1C [BI-D1870] + O=C(CCCCCCC(=O)Nc1ccccc1)NO [Vorinostat] (partner 1 µM)
In a few lines: as §1

For the cell line NCI-H2085, the relative viability was determined as 1.04 with Zebularine + Alpelisib (first compound 1 µM); 0.977 in the experiment with Zebularine + Alpelisib (first compound 3.162 µM); 0.802 with Zebularine + Alpelisib (first compound 10 µM); 0.96 in the experiment with Zebularine + Alpelisib (first compound 31.62 µM); 0.535 in the experiment with Zebularine + Alpelisib (first compound 100 µM); 0.833 with Zebularine + Lapatinib (first compound 1 µM). The relative viability with Zebularine + Lapatinib (first compound 3.162 µM) was determined as 0.747; in the experiment with Zebularine + Lapatinib (first compound 10 µM), 0.647; in the experiment with Zebularine + Lapatinib (first compound 31.62 µM) it was 0.773; with Zebularine + Lapatinib (first compound 100 µM), 0.633; with BI-D1870 + Decitabine (first compound 0.04 µM) it was 0.541; with BI-D1870 + Decitabine (first compound 0.1265 µM), 0.556. Further, the relative viability turned out to be 0.643 in the experiment with BI-D1870 + Decitabine (first compound 0.4 µM); 0.519 with BI-D1870 + Decitabine (first compound 1.265 µM); 0.557 in the experiment with BI-D1870 + Decitabine (first compound 4 µM); 0.828 with BI-D1870 + Vorinostat (first compound 0.04 µM); 0.733 with BI-D1870 + Vorinostat (first compound 0.1265 µM); 0.709 in the experiment with BI-D1870 + Vorinostat (first compound 0.4 µM). Besides, the relative viability with BI-D1870 + Vorinostat (first compound 1.265 µM) turned out to be 0.781; with BI-D1870 + Vorinostat (first compound 4 µM) it was 0.509.
On to NCI-H2087, for which the relative viability was determined as 1.31 with Zebularine + Alpelisib (first compound 1 µM); 1.01 in the experiment with Zebularine + Alpelisib (first compound 3.162 µM); 0.684 with Zebularine + Alpelisib (first compound 10 µM); 0.778 with Zebularine + Alpelisib (first compound 31.62 µM); 0.309 with Zebularine + Alpelisib (first compound 100 µM); 1.16 with Zebularine + Lapatinib (first compound 1 µM). Further, the relative viability is 0.662 in the experiment with Zebularine + Lapatinib (first compound 3.162 µM); 0.615 with Zebularine + Lapatinib (first compound 10 µM); 0.924 in the experiment with Zebularine + Lapatinib (first compound 31.62 µM); 0.275 with Zebularine + Lapatinib (first compound 100 µM); 0.259 with BI-D1870 + Decitabine (first compound 0.04 µM); 0.28 with BI-D1870 + Decitabine (first compound 0.1265 µM). Also, the relative viability in the experiment with BI-D1870 + Decitabine (first compound 0.4 µM) worked out at 0.307; with BI-D1870 + Decitabine (first compound 1.265 µM), 0.342; with BI-D1870 + Decitabine (first compound 4 µM) it was 0.38; in the experiment with BI-D1870 + Vorinostat (first compound 0.04 µM), 0.634; in the experiment with BI-D1870 + Vorinostat (first compound 0.1265 µM) it was 0.595; with BI-D1870 + Vorinostat (first compound 0.4 µM), 0.96. The relative viability turned out to be 0.92 with BI-D1870 + Vorinostat (first compound 1.265 µM) and 0.849 in the experiment with BI-D1870 + Vorinostat (first compound 4 µM).
With NCI-H2126, the relative viability in the experiment with Zebularine + Alpelisib (first compound 1 µM) stood at 0.783; with Zebularine + Alpelisib (first compound 3.162 µM) it was 0.694; with Zebularine + Alpelisib (first compound 10 µM), 0.764; in the experiment with Zebularine + Alpelisib (first compound 31.62 µM), 0.687; in the experiment with Zebularine + Alpelisib (first compound 100 µM), 0.437; with Zebularine + Lapatinib (first compound 1 µM) it was 0.843. The relative viability with Zebularine + Lapatinib (first compound 3.162 µM) was 0.774; in the experiment with Zebularine + Lapatinib (first compound 10 µM), 0.695; in the experiment with Zebularine + Lapatinib (first compound 31.62 µM) it was 0.76; with Zebularine + Lapatinib (first compound 100 µM), 0.619; with BI-D1870 + Decitabine (first compound 0.04 µM) it was 0.576; with BI-D1870 + Decitabine (first compound 0.1265 µM), 0.549. The relative viability with BI-D1870 + Decitabine (first compound 0.4 µM) was 0.585; with BI-D1870 + Decitabine (first compound 1.265 µM), 0.606; with BI-D1870 + Decitabine (first compound 4 µM), 0.556; in the experiment with BI-D1870 + Vorinostat (first compound 0.04 µM) it was 0.802; with BI-D1870 + Vorinostat (first compound 0.1265 µM) it was 0.718; in the experiment with BI-D1870 + Vorinostat (first compound 0.4 µM), 0.719. The relative viability with BI-D1870 + Vorinostat (first compound 1.265 µM) came to 0.735; with BI-D1870 + Vorinostat (first compound 4 µM), 0.578.
Consider NCI-H2170, for which the relative viability was determined as 0.85 with Zebularine + Alpelisib (first compound 1 µM); 0.84 in the experiment with Zebularine + Alpelisib (first compound 3.162 µM); 0.543 in the experiment with Zebularine + Alpelisib (first compound 10 µM); 0.684 in the experiment with Zebularine + Alpelisib (first compound 31.62 µM); 0.507 with Zebularine + Alpelisib (first compound 100 µM); 0.302 with Zebularine + Lapatinib (first compound 1 µM). Moreover, the relative viability in the experiment with Zebularine + Lapatinib (first compound 3.162 µM) was determined as 0.263; with Zebularine + Lapatinib (first compound 10 µM) it was 0.251; with Zebularine + Lapatinib (first compound 31.62 µM), 0.26; with Zebularine + Lapatinib (first compound 100 µM), 0.266; in the experiment with BI-D1870 + Decitabine (first compound 0.04 µM) it was 0.515; with BI-D1870 + Decitabine (first compound 0.1265 µM) it was 0.384. For the same cell line, the relative viability in the experiment with BI-D1870 + Decitabine (first compound 0.4 µM) turned out to be 0.457; with BI-D1870 + Decitabine (first compound 1.265 µM), 0.445; in the experiment with BI-D1870 + Decitabine (first compound 4 µM), 0.402; with BI-D1870 + Vorinostat (first compound 0.04 µM) it was 1.01; with BI-D1870 + Vorinostat (first compound 0.1265 µM), 0.786; with BI-D1870 + Vorinostat (first compound 0.4 µM) it was 0.786. The values for the relative viability with BI-D1870 + Vorinostat (first compound 1.265 µM) and with BI-D1870 + Vorinostat (first compound 4 µM) were 0.783 and 0.675, respectively.
With NCI-H2347, the relative viability with Zebularine + Alpelisib (first compound 1 µM) is 1.02; in the experiment with Zebularine + Alpelisib (first compound 3.162 µM), 0.867; with Zebularine + Alpelisib (first compound 10 µM), 0.686; in the experiment with Zebularine + Alpelisib (first compound 31.62 µM), 0.694; in the experiment with Zebularine + Alpelisib (first compound 100 µM), 0.474; with Zebularine + Lapatinib (first compound 1 µM) it was 1.07. The relative viability is 0.783 with Zebularine + Lapatinib (first compound 3.162 µM); 0.816 with Zebularine + Lapatinib (first compound 10 µM); 0.628 in the experiment with Zebularine + Lapatinib (first compound 31.62 µM); 0.45 with Zebularine + Lapatinib (first compound 100 µM); 0.671 in the experiment with BI-D1870 + Decitabine (first compound 0.04 µM); 0.656 in the experiment with BI-D1870 + Decitabine (first compound 0.1265 µM). In addition, the relative viability came to 0.619 in the experiment with BI-D1870 + Decitabine (first compound 0.4 µM); 0.657 with BI-D1870 + Decitabine (first compound 1.265 µM); 0.627 with BI-D1870 + Decitabine (first compound 4 µM); 0.524 with BI-D1870 + Vorinostat (first compound 0.04 µM); 0.677 with BI-D1870 + Vorinostat (first compound 0.1265 µM); 0.597 with BI-D1870 + Vorinostat (first compound 0.4 µM). In addition, the values for the relative viability with BI-D1870 + Vorinostat (first compound 1.265 µM) and in the experiment with BI-D1870 + Vorinostat (first compound 4 µM) were 0.776 and 0.545, respectively.
On to NCI-H2405, for which the relative viability with Zebularine + Alpelisib (first compound 1 µM) was determined as 0.749; in the experiment with Zebularine + Alpelisib (first compound 3.162 µM), 0.749; with Zebularine + Alpelisib (first compound 10 µM), 0.726; with Zebularine + Alpelisib (first compound 31.62 µM) it was 0.769; with Zebularine + Alpelisib (first compound 100 µM), 0.568; with Zebularine + Lapatinib (first compound 1 µM) it was 1.06. For the same cell line, the relative viability stood at 0.946 with Zebularine + Lapatinib (first compound 3.162 µM); 0.906 with Zebularine + Lapatinib (first compound 10 µM); 0.963 with Zebularine + Lapatinib (first compound 31.62 µM); 0.76 with Zebularine + Lapatinib (first compound 100 µM); 0.788 in the experiment with BI-D1870 + Decitabine (first compound 0.04 µM); 0.693 with BI-D1870 + Decitabine (first compound 0.1265 µM). Besides, the relative viability came to 0.733 in the experiment with BI-D1870 + Decitabine (first compound 0.4 µM); 0.777 in the experiment with BI-D1870 + Decitabine (first compound 1.265 µM); 0.726 with BI-D1870 + Decitabine (first compound 4 µM); 1.04 in the experiment with BI-D1870 + Vorinostat (first compound 0.04 µM); 1.03 with BI-D1870 + Vorinostat (first compound 0.1265 µM); 1 with BI-D1870 + Vorinostat (first compound 0.4 µM). Moreover, the relative viability with BI-D1870 + Vorinostat (first compound 1.265 µM) came to 0.974; with BI-D1870 + Vorinostat (first compound 4 µM), 0.9.
